This note sets out measurements from patent US11498920B2, “4-(1H-imidazol-5-yl)-1H-pyrrolo[2, 3-b] pyridines for use in the treatment of leukaemias, lymphomas and solid tumors” (MASARYKOVA UNIVERZITA, priority 2018, dated 2022).

Common to all, as to assay type: cell-based
One assay concerns BL-41. Description: Cytotoxicity on panel of cell lines, TMRE viability (Example II.2). The note with it: Homo sapiens, 24 hours, mean, control = 1, read-out: cell viability relative to control, BL-41 (BL). On the procedure:
(§1) The leukemia and lymphoma-derived cell lines [MEC-1 cell line (derived from chronic lymphocytic leukemia—CLL), Nalm-16 (acute lymphocytic leukemia—ALL), K562 (chronic myeloid leukemia—CML), HL-60 (acute myeloid leukemia—AML), Maver-1 and Mino (mantle cell lymphoma—MCL), BL-41 (Burkitt lymphoma—BL), WSU-NHL (follicular lymphoma—FL), SUDHL (diffuse large B-cell lymphoma—DLBCL)], primary CLL cells and nonmalignant control primary cells were cultured in suspension in flasks under the following conditions: RPMI 1640 medium (Hyclone) supplemented with 10% fetal bovine serum (FBS, Gibco) and 1% penicillin/streptomycin (Life Technologies), 37° C., 5% CO2 and 95% relative humidity, with optimal culture cell density 5×10^6 cells/mL in case of primary cells and 0.5-1×10^6 cells/mL in case of cell lines. The adherent cell lines [A375 (derived from malignant melanoma), MDA-MB-231 and MCF-7 (breast cancer), MIA-PA-CA and PANC1 (pancreatic cancer), PC3 (prostate cancer), OVCAR4 (ovarian cancer) and HEPG2 (hepatocellular carcinoma)] were cultured on plates under the same conditions using RPMI1640 or DMEM medium (Gibco) according to instructions provided by the distributor (DSMZ/ATCC).
(§2) The tested cell lines were incubated with inhibitors at 30 μM concentration or corresponding amount of solvent (DMSO, Sigma Aldrich) in standard culture conditions, seeded as 10^5 cells/500 μl per well in a 24-well plate. Experiments were performed in technical duplicates and 2-3 biological repetitions per cell line. Viability of cells was assessed after 24 hours.
(§3) Relative values are presented as a mean value, showing ratio to the effect of control. Relative value <1=lower viability than control condition.

Another assay concerns SUDHL. The description is as above. The note with it: 24 hours, mean, control = 1, read-out: cell viability relative to control, SUDHL (DLBCL). How it is done: as §1, §2, §3
A further assay relates to Mino. The assay is described as above. The settings on record: Homo sapiens, 24 hours, mean, control = 1, read-out: cell viability relative to control, Mino (MCL). How it is done:
as §1, §2, §3

The test system of the next assay is MEC-1. Described as above. The settings on record: Homo sapiens, MEC1, 24 hours, mean, control = 1, read-out: cell viability relative to control, MEC-1 (CLL). How it is done: as §1, §2, §3
The subject of the next assay is Maver1. The assay is described as above. The settings on record: Homo sapiens, 24 hours, mean, control = 1, read-out: cell viability relative to control, Maver1 (MCL). How it is done: as §1, §2, §3
A further assay concerns primary CLL. The description is as above. The settings on record: Homo sapiens, 24 hours, mean, control = 1, read-out: cell viability relative to control, primary CLL. On the procedure:
as §1, §2, §3

In another assay the test system is Nalm16. The assay is described as above. The note with it: 24 hours, mean, control = 1, read-out: cell viability relative to control, Nalm16 (ALL). On the procedure: as §1, §2, §3
For another assay, the system named is MCF-7. Described as above. The settings on record: Homo sapiens, MCF7, 24 hours, mean, control = 1, read-out: cell viability relative to control, MCF-7 (breast cancer). On the procedure:
as §1, §2, §3

Another assay deals with primary CLL cells. Description: Cytotoxicity, TMRE flow cytometry viability, primary CLL cells (Example II.1). The settings on record: Homo sapiens, CLL cell, 6 hours, TMRE positive cells normalized to control, ratio to PF670462, <1 = higher cytotoxicity than PF670462, read-out: Viability of cells, Compound of formula I (100 μM), relative to PF670462 (100 μM), CLL primary cells.

The test system of assay [1] is Maver-1 cells (mantle cell lymphoma). Description: Cytotoxicity, TMRE flow cytometry viability, Maver-1 cells (Example II.1). The note with it: Homo sapiens, Maver1, 24 hours, TMRE positive cells normalized to control, ratio to PF670462, <1 = higher cytotoxicity than PF670462, read-out: Viability of cells, Compound of formula I (100 μM), relative to PF670462 (100 μM), Maver-1 cells (mantle cell lymphoma).

In the next assay the test system is HEPG2. Description: Cytotoxicity on panel of cell lines, TMRE viability (Example II.2). The settings on record: Homo sapiens, 24 hours, mean, control = 1, read-out: cell viability relative to control, HEPG2 (hepatocellular carcinoma). How it is done:
as §1, §2, §3

For another assay, the system named is OVCAR4. The description is as above. The note with it: Homo sapiens, OVCAR-4, 24 hours, mean, control = 1, read-out: cell viability relative to control, OVCAR4 (ovarian cancer). On the procedure:
as §1, §2, §3

A further assay relates to PANC1. The description is as above. The settings on record: Homo sapiens, PANC-1, 24 hours, mean, control = 1, read-out: cell viability relative to control, PANC1 (pancreatic cancer). How it is done: as §1, §2, §3
The subject of a further assay is A375. The description is as above. The note with it: Homo sapiens, A-375, 24 hours, mean, control = 1, read-out: cell viability relative to control, A375 (melanoma). How it is done:
as §1, §2, §3

In a further assay the test system is WSU-NHL. The assay is described as above. The settings on record: Homo sapiens, 24 hours, mean, control = 1, read-out: cell viability relative to control, WSU-NHL (FL). How it is done:
as §1, §2, §3

A further assay deals with MIA-PA-CA. Described as above. The note with it: Homo sapiens, MIA PaCa-2, 24 hours, mean, control = 1, read-out: cell viability relative to control, MIA-PA-CA (pancreatic cancer). How it is done:
as §1, §2, §3

For another assay, the system named is HL60. Described as above. The settings on record: Homo sapiens, HL-60, 24 hours, mean, control = 1, read-out: cell viability relative to control, HL60 (AML). On the procedure:
as §1, §2, §3

For a further assay, the system named is PC3. The description is as above. The note with it: Homo sapiens, PC-3, 24 hours, mean, control = 1, read-out: cell viability relative to control, PC3 (prostate cancer). On the procedure:
as §1, §2, §3

The viability is a read-out of living cells in per cent, often relative to untreated cells. Regarding `Fc1ccc(-c2ncn(Cc3ccoc3)c2-c2ccnc3[nH]ccc23)cc1` [Preparative Example 23], the viability at 30 µM in the assay on BL-41 is 57%; in the assay with SUDHL, 67%; in the assay on Mino, 65%; in the assay with MEC-1, 84%; in the assay with Maver1 it was 71%; in the assay on primary CLL, 68%. Further, the values for the viability at 30 µM in the assay with Nalm16 and in the assay on MCF-7 were 20% and 31%, respectively. In addition, the viability at 100 µM turned out to be 37% in the assay with primary CLL cells and 46% in assay [1].

Consider `COCCCn1cnc(-c2ccc(F)cc2)c1-c1ccnc2[nH]ccc12` [Preparative Example 24, 4-(4-(4-fluorophenyl)-1-(3-methoxypropyl)-1H-imidazol-5-yl)-1H-pyrrolo[2,3-b]pyridine], for which the viability at 30 µM with BL-41 was determined as 76%; in the assay on Mino, 80%; in the assay on Maver1 it was 72%; in the assay with primary CLL, 85%; with Nalm16 it was 75%. Besides, the viability at 100 µM in the assay with primary CLL cells was determined as 30%.

With `Fc1ccc(-c2ncn(CC3CCCO3)c2-c2ccnc3[nH]ccc23)cc1` (centres unmarked) [Preparative Example 27, 4-(4-(4-fluorophenyl)-1-((tetrahydrofuran-2-yl)methyl)-1H-imidazol-5-yl)-1H-pyrrolo[2,3-b]pyridine], the figures for the viability at 30 µM in the assay on HEPG2, with Maver1 and with OVCAR4 were 85%, 78% and 84%, respectively.

With `Fc1ccc(-c2ncn(C3CCNCC3)c2-c2ccnc3[nH]ccc23)cc1` [Preparative Example 37, 4-(4-(4-fluorophenyl)-1-(piperidin-4-yl)-1H-imidazol-5-yl)-1H-pyrrolo[2,3-b]pyridine], the viability at 30 µM came out at 75% in the assay with BL-41; 89% with SUDHL; 67% in the assay on PANC1; 39% in the assay on primary CLL; 50% in the assay with Nalm16; 82% in the assay on OVCAR4. The viability at 100 µM with primary CLL cells is 51%.

As for `Fc1ccc(-c2ncn(-c3ccccc3)c2-c2ccnc3[nH]ccc23)cc1` [Preparative Example 47], the viability at 30 µM in the assay on BL-41 was determined as 73%; in the assay with PANC1, 83%; with primary CLL, 81%; with Nalm16 it was 57%; in the assay with OVCAR4, 76%. For the same molecule, the viability at 100 µM in the assay with primary CLL cells amounted to 78%.

With `c1cc(-c2c(C3CCCCC3)ncn2C2CCCCC2)c2cc[nH]c2n1` [Preparative Example 67, 4-(1,4-dicyclohexyl-1H-imidazol-5-yl)-1H-pyrrolo[2,3-b]pyridine], the viability at 30 µM was 76% in the assay with BL-41; 72% in the assay on Mino; 55% in the assay with A375; 73% in the assay with Maver1; 40% in the assay on Nalm16; 84% in the assay on WSU-NHL. Besides, the values for the viability at 100 µM (with primary CLL cells; in [1]) were 66% and 71%, respectively.

Turning to `CS(=O)(=O)N[C@H]1CC[C@@H](n2cnc(-c3ccc(F)cc3)c2-c2ccnc3[nH]ccc23)CC1` [Preparative Example 74, N-(cis-4-(4-(4-fluorophenyl)-5-(1H-pyrrolo[2,3-b]pyridin-4-yl)-1H-imidazol-1-yl)cyclohexyl)methanesulfonamide], the viability at 30 µM in the assay on Maver1 was determined as 84%; in the assay on Nalm16 it was 78%; in the assay on MCF-7, 72%. Besides, the viability at 100 µM with primary CLL cells is 73%; in [1] it was 46%.

As to `Fc1ccc(-c2ncn(Cc3ccco3)c2-c2ccnc3[nH]ccc23)cc1` [Preparative Example 81, 4-(4-(4-fluorophenyl)-1-(furan-2-ylmethyl)-1H-imidazol-5-yl)-1H-pyrrolo[2,3-b]pyridine], the viability at 30 µM in the assay with HEPG2 was 58%; with Mino, 37%; in the assay on Maver1, 51%; in the assay on primary CLL, 77%; with WSU-NHL, 68%; in the assay on MCF-7, 68%. Moreover, the viability at 100 µM with primary CLL cells worked out at 60%; in assay [1] it was 10%.

`Cn1cnc(Cn2cnc(-c3ccc(F)cc3)c2-c2ccnc3[nH]ccc23)n1` [Preparative Example 106, 4-(4-(4-fluorophenyl)-1-((1-methyl-1H-1,2,4-triazol-3-yl)methyl)-1H-imidazol-5-yl)-1H-pyrrolo[2,3-b]pyridine]: the viability at 30 µM in the assay on HEPG2 turned out to be 24%; with Mino, 85%; in the assay on A375, 79%; in the assay with Maver1, 54%; with MIA-PA-CA it was 68%; in the assay with WSU-NHL, 82%. Further, the viability at 30 µM with MCF-7 was found to be 65%; with OVCAR4, 89%. Moreover, the viability at 100 µM in [1] is 7%.

Regarding `Fc1ccc(-c2ncn(C3CCCCC3)c2-c2ccnc3[nH]cc(F)c23)cc1` [Preparative Example 149, 4-(1-cyclohexyl-4-(4-fluorophenyl)-1H-imidazol-5-yl)-3-fluoro-1H-pyrrolo[2,3-b]pyridine], the viability at 30 µM in the assay with BL-41 is 22%; in the assay on HEPG2, 77%; with HL60 it was 79%; with SUDHL, 21%; in the assay with Mino, 1%; in the assay on MEC-1, 33%. Also, the viability at 30 µM is 1% with Maver1; 68% in the assay with primary CLL; 87% with MIA-PA-CA; 86% in the assay on PC3; 26% with WSU-NHL; 65% in the assay on MCF-7. In addition, the viability at 100 µM in the assay on primary CLL cells was found to be 11%; in [1], 0%.

Regarding `Fc1ccc(-c2ncn(C3CCCCC3)c2-c2ccnc3[nH]ccc23)cc1F` [Preparative Example 173], the viability at 30 µM was determined as 5% in the assay with BL-41; 58% in the assay on HEPG2; 77% in the assay on HL60; 3% in the assay on SUDHL; 1% in the assay on Mino; 9% in the assay on MEC-1. Besides, the viability at 30 µM is 0% with Maver1; 62% in the assay with primary CLL; 74% with MIA-PA-CA; 16% with WSU-NHL; 52% in the assay on MCF-7. The viability at 100 µM with primary CLL cells was 2%; in [1] it was 1%.
